Positions of bridges follow the written chain, without caps; N, C: chain ends. Residues, ends and D or L forms follow the SMILES beside them.
Assays:
Assay type in all cases: binding, human
HIV antibodies = test: ELISA with peptide-coated wells, samples negative for HIV antibodies or not described
Experimental: (§1) A preferred convenient and classical technique for the determination of antibodies against HIV-1 or HIV-2 using a peptide or a peptide mixture of the present invention is an enzyme-linked immunosorbent assay (ELISA). In this assay, for example, a peptide, peptide mixture or combination of the present invention is adsorbed onto, or covalently coupled to, the wells of a microtiter plate. The wells are then treated with the sera or analyte to be tested. After washing, antihuman IgG or antihuman IgM labeled with peroxidase is added to the wells. The determination of the peroxidase is performed with a corresponding substrate, e.g., with o-phenylene diamine. Without departing from the usefulness of the illustrative assay, the peroxidase can be exchanged by another label, e.g., by a radioactive, fluorescence chemiluminescence or infrared emitting label.
(§2) O.D. Values were obtained at 450 nm and the blank values measured with the sample dilution buffer were not subtracted.
(§3) Samples NEIA-2*2, BBI-1-162 to 168, 87B140, 87L139, 87V103 are all negative for HIV antibodies. Sample LSPQ-S9-1 is an early seroconverter (HIV-1). The series labeled CAP-113 to CAP-120 corresponds to a pool of seven HIV-1 positive plasma samples serially diluted with an HIV-negative plasma. CAP-113 is the pool diluted 50-fold with the HIV-negative plasma; CAP-114 is diluted 100-fold; CAP-115 is diluted 200-fold; etc. Similarly, the series labeled CAP-222 to CAP-230 corresponds to a pool of seven HIV-2 confirmed seropositive plasma samples. CAP-222 is diluted by 50 with an HIV-negative plasma; CAP-223 by 100; etc. Before the assay is done, each sample, including the CAP-series, is further diluted by 50 with the sample dilution buffer. In these tests, the cut-off for seropositivity is defined as the sum of the O.D. value for sample NEIA-2*2 plus 0.100.
(§4) Each well of the microtiter plate is saturated with 100 μl of a solution containing a peptide or mixture of peptides (5 μg/ml) and left overnight. The wells are emptied and washed twice with a washing buffer (Tris, 0.043M; NaCl, 0.5M; thimerosal, 0.01% w/v; Tween 20, 0.05% v/v; pH 7.4). The wells are then saturated with 0.35 ml of washing buffer for 1 hr. at 37° C. and washed once with the same buffer. Serum samples to be analyzed are diluted with specimen buffer (washing buffer plus casein, 0.05% w/v). The wells are rinsed with washing buffer prior to the addition of the diluted serum sample (0.1 ml). These are left to incubate for 1 hr. at room temperature. The wells are then emptied, washed twice rapidly and then once for two minutes with washing buffer. […] The wells are then emptied and washed twice rapidly with washing buffer and then five times in which the buffer was in contact with the well 2 minutes per washing. The substrate solution (3,3',5,5'-tetramethylbenzidine, 8 mg per ml of DMSO) is diluted with 100 volumes 0.1M citrate-acetate buffer, pH 5.6 containing 0.1% v/v of 30% H2 O2 and added to each well (0.1 ml per well). After 10 minutes the contents of each well is treated with 0.1 ml 2N H2 SO4 and the optical density read at 450 nm. All determinations are done in duplicate.
(§5) Peptide cocktails were prepared by mixing together equal volumes of two peptide solutions each at 10 ug/ml. One cocktail used peptides BCH-87c and BCH-202c and the other cocktail was a mixture of BCH-87ck and BCH-202ck. Each cocktail was used to coat two series of plates as described earlier.

HIV-1 antibodies = test: ELISA with peptide-coated wells, HIV-1 antibody positive samples (diluted plasma pool, seroconversion samples)
Experimental: as §1, §2, §3
as §4, with “duplicate. […]” for “duplicate.”

HIV-2 antibodies = test: ELISA with peptide-coated wells, HIV-2 seropositive plasma pool serially diluted; details: Test 314
Experimental: as §1, §2, §3, §4, §5

[1] = Test 350, sample 2-87-L-139 (negative for HIV antibodies)
[2] = Test 350, sample 2-87-V-103 (negative for HIV antibodies)
[3] = Test 350, sample 89-D-307 (not described)
[4] = Test 350, sample NEIA-2*2 (negative for HIV antibodies)
[5] = Test 350, sample CAP-10 (progressively higher dilutions)
[6] = Test 350, sample CAP-11 (progressively higher dilutions)
[7] = Test 350, sample CAP-12 (progressively higher dilutions)
[8] = Test 350, sample CAP-13 (progressively higher dilutions)
[9] = Test 350, sample CAP-14 (progressively higher dilutions)
[10] = Test 350, sample CAP-15 (progressively higher dilutions)
[11] = Test 350, sample CAP-16 (progressively higher dilutions)
[12] = Test 350, sample CAP-17 (progressively higher dilutions)
[13] = Test 350, sample CAP-18 (progressively higher dilutions)
[14] = Test 350, sample CAP-19 (progressively higher dilutions)

Row | SMILES | O.D. 450 nm (HIV antibodies; [1]) | O.D. 450 nm (HIV antibodies; [2]) | O.D. 450 nm (HIV antibodies; [3]) | O.D. 450 nm (HIV antibodies; [4]) | O.D. 450 nm (HIV-1 antibodies; [5]) | O.D. 450 nm (HIV-1 antibodies; [6]) | O.D. 450 nm (HIV-1 antibodies; [7]) | O.D. 450 nm (HIV-1 antibodies; [8]) | O.D. 450 nm (HIV-1 antibodies; [9]) | O.D. 450 nm (HIV-1 antibodies; [10]) | O.D. 450 nm (HIV-1 antibodies; [11]) | O.D. 450 nm (HIV-1 antibodies; [12]) | O.D. 450 nm (HIV-1 antibodies; [13]) | O.D. 450 nm (HIV-1 antibodies; [14]) | further results
1 | CC[C@H](C)[C@H](NC(=O)[C@H](CC(C)C)NC(=O)[C@H](CCCCN)NC(=O)CNC(=O)[C@H](CO)NC(=O)[C@H](C)NC(=O)[C@H](CC(N)=O)NC(=O)[C@H](Cc1c[nH]c2ccccc12)NC(=O)[C@@H]1CCCN1C(=O)[C@@H](NC(=O)[C@H](C)NC(=O)[C@@H](NC(=O)[C@@H](NC(=O)[C@@H]1CSSC[C@H](NC(=O)CNC(=O)[C@H](Cc2c[nH]c3ccccc23)NC(=O)[C@@H](NC(=O)CNC(=O)[C@H](CC(C)C)NC(=O)[C@H](CC(C)C)NC(=O)[C@H](CCC(N)=O)NC(=O)[C@H](CCC(N)=O)NC(=O)[C@H](CC(=O)O)NC(=O)[C@H](CCCCN)NC(=O)[C@H](CC(C)C)NC(=O)[C@H](Cc2ccc(O)cc2)NC(=O)[C@H](CCCNC(=N)N)NC(=O)[C@H](CCC(=O)O)NC(=O)[C@@H](NC(=O)[C@H](C)NC(=O)[C@H](CC(C)C)NC(=O)[C@@H](NC(=O)[C@@H](N)CCCCN)[C@@H](C)CC)C(C)C)[C@@H](C)CC)C(=O)N[C@@H](CO)C(=O)NCC(=O)N[C@@H](CCCCN)C(=O)N[C@@H](CC(C)C)C(=O)N[C@@H]([C@@H](C)CC)C(=O)N1)[C@@H](C)O)[C@@H](C)O)C(C)C)C(=O)O [BCH-408] (H-KILAVERYLKDQQLLGIWGCSGKLICTTAVPWNASGKLI-OH; disulfide 20-26) | 0.025 | 0.014 | 0.029 | 0.035 | > 2.8 | > 2.8 | > 2.8 | 2.319 | 1.433 | 0.835 | 0.455 | 0.244 | 0.156 | 0.102 | sensitivity compared to the other peptides (HIV-1 antibodies; Table 3, versus BCH-87c, BCH-87ck, BCH-266 at progressively higher dilutions): superior sensitivity
2 | CC[C@H](C)[C@H](NC(=O)CNC(=O)[C@H](CC(C)C)NC(=O)[C@H](CC(C)C)NC(=O)[C@H](CCC(N)=O)NC(=O)[C@H](CCC(N)=O)NC(=O)[C@H](CC(=O)O)NC(=O)[C@H](CCCCN)NC(=O)[C@H](CC(C)C)NC(=O)[C@H](Cc1ccc(O)cc1)NC(=O)[C@H](CCCNC(=N)N)NC(=O)[C@H](CCC(=O)O)NC(=O)[C@@H](NC(=O)[C@H](C)NC(=O)[C@H](CC(C)C)NC(=O)[C@@H](NC(=O)[C@@H](N)CCCCN)[C@@H](C)CC)C(C)C)C(=O)N[C@@H](Cc1c[nH]c2ccccc12)C(=O)NCC(=O)N[C@H]1CSSC[C@@H](C(=O)N[C@H](C(=O)N[C@H](C(=O)N[C@@H](C)C(=O)N[C@H](C(=O)N2CCC[C@H]2C(=O)N[C@@H](Cc2c[nH]c3ccccc23)C(=O)N[C@@H](CC(N)=O)C(=O)N[C@@H](C)C(=O)N[C@@H](CO)C(=O)O)C(C)C)[C@@H](C)O)[C@@H](C)O)NC(=O)[C@H]([C@@H](C)CC)NC(=O)[C@H](CC(C)C)NC(=O)[C@H](CCCCN)NC(=O)CNC(=O)[C@H](CO)NC1=O [BCH-87ck] (H-KILAVERYLKDQQLLGIWGCSGKLICTTAVPWNAS-OH; disulfide 20-26) | 0.409 | 0.015 | 0.022 | 0.034 | > 2.8 | > 2.8 | 2.735 | 1.676 | 1.089 | 0.643 | 0.274 | 0.191 | 0.114 | 0.053 | O.D. 450 nm (HIV antibodies; Test 314, sample BBI-1-162 (negative for HIV antibodies)): 0.015; O.D. 450 nm (HIV antibodies; Test 314, sample BBI-1-169 (not described)): 0.090; O.D. 450 nm (HIV antibodies; Test 314, sample BBI-1-172 (not described)): 0.019; O.D. 450 nm (HIV antibodies; Test 314, sample NEIA-2*2 (negative for HIV antibodies)): 0.050; O.D. 450 nm (HIV-2 antibodies; sample CAP-222 (HIV-2 positive plasma pool diluted by 50)): 0.069; O.D. 450 nm (HIV-2 antibodies; sample CAP-223 (HIV-2 positive pool diluted by 100)): 0.060; O.D. 450 nm (HIV-2 antibodies; sample CAP-224 (HIV-2 positive pool, serial dilution)): 0.054; O.D. 450 nm (HIV-2 antibodies; sample CAP-225 (HIV-2 positive pool, serial dilution)): 0.050; O.D. 450 nm (HIV-2 antibodies; sample CAP-226 (HIV-2 positive pool, serial dilution)): 0.050; O.D. 450 nm (HIV-2 antibodies; sample CAP-227 (HIV-2 positive pool, serial dilution)): 0.043; O.D. 450 nm (HIV-2 antibodies; sample CAP-228 (HIV-2 positive pool, serial dilution)): 0.042; O.D. 450 nm (HIV-2 antibodies; sample CAP-230 (HIV-2 positive pool, serial dilution)): 0.049; O.D. 450 nm (HIV-1 antibodies; Test 314, sample CAP-113 (HIV-1 positive plasma pool diluted 50-fold)): > 2.8; O.D. 450 nm (HIV-1 antibodies; Test 314, sample CAP-114 (HIV-1 positive pool diluted 100-fold)): > 2.8; O.D. 450 nm (HIV-1 antibodies; Test 314, sample CAP-115 (HIV-1 positive pool diluted 200-fold)): 2.593; O.D. 450 nm (HIV-1 antibodies; Test 314, sample CAP-116 (HIV-1 positive pool, serial dilution)): 1.871; O.D. 450 nm (HIV-1 antibodies; Test 314, sample CAP-117 (HIV-1 positive pool, serial dilution)): 1.158; O.D. 450 nm (HIV-1 antibodies; Test 314, sample CAP-118 (HIV-1 positive pool, serial dilution)): 0.679; O.D. 450 nm (HIV-1 antibodies; Test 314, sample CAP-119 (HIV-1 positive pool, serial dilution)): 0.392; O.D. 450 nm (HIV-1 antibodies; Test 314, sample CAP-120 (HIV-1 positive pool, serial dilution)): 0.229

— patent US5241047A, “Synthetic peptides and mixtures thereof for detecting HIV antibodies” (BioChem Pharma Inc., priority 1990, dated 1993)
